The text below walks through data of US20150241410A1, “INHIBITORS OF CENTRAL NERVOUS SYSTEM VASOACTIVE INHIBITORY PEPTIDE RECEPTOR 2” (The Trustees Of Columbia University In The City Of New York, priority 2012, published 2015).

Common to all, as to format: cell-based
The target in test [1] is T1, VIPR2 (Homo sapiens, UniProt P41587).
T1 construct: expressed in transfected cells
T1 sequence (P41587 24-438): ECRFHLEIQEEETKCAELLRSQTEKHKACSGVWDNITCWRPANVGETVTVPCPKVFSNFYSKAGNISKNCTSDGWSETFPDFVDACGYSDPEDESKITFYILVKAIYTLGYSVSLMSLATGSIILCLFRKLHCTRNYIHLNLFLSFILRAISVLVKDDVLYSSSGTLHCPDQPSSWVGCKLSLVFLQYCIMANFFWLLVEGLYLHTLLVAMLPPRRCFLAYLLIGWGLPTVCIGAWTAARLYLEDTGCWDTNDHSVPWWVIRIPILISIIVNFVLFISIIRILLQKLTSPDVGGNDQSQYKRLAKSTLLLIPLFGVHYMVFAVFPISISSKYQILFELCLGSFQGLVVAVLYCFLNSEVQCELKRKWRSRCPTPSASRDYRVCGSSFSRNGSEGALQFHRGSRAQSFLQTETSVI
Put plainly: BRET-based VIPR2 activation assay (CAMYEL cAMP sensor, CHO cells, VIP background). The conditions noted are these: for IC50: Table 3, read-out: IC50 (from BRET). How it is done: FIG. 5A-B. Results of BRET-based VIPR2 activation assays in cells expressing both the VIPR2 receptor and CAMYEL (see FIG. 1A for schematic). a) Inhibitory dose-response curves on treatment of CHO cells with increasing concentrations of a batch of antagonists against a background of VIP activation (VIP=5 nM).
In such a system, a detector cell is used which expresses both the VIPR2 receptor and “CAMYEL,” a YFP-Epac-RLuc8 BRET sensor construct. This construct includes Epac1, a guanine nucleotide exchange factor activated by direct binding of cAMP, fused with an enhanced YFP and Renilla luciferase 8 (Rluc8) allowing BRET upon cAMP-induced conformational changes (Jiang et al., 2007, J Biol Chem. 282:10576-10584). In response to elevated cAMP levels, there is a conformational change in Epac and therefore a change in the proximity of the fused chromophores, Rluc8 and YFP, resulting in measurable energy transfer. Coexpression of this BRET construct with VIPR2. optionally tagged at the N-terminus with a signal peptide and FLAG epitope (SF-VIPR2), for example in HEK293 cells, allows for detection of a VIPR2-specific response to cAMP. BRET readout may be calculated by quantifying the ratio of the light emitted by the acceptor, YFP (λ=525 nm), over the emission from the donor, RLuc8 (λ=485 nm). The proximity of the donor and acceptor, and therefore the BRET ratio, decreases in the presence of cAMP. In non-limiting specific embodiments, a stable cell line may be generated for this assay using the Flp-In T-Rex system in HEK293 cells. This system allows site-specific single copy integration of the gene of interest and control of expression levels using the Tet-repressor site making receptor expression tetracycline-inducible. For example, a CAMYEL and VIPR2 expressing line may be induced with 0.01 μg/ml tetracycline, then, 24 hours later cells may be collected and distributed into 96-well plates. After treatment with candidate inhibitor compound, for example at 5, 1 and 0.5 μM concentrations, cells may be incubated with the light emitting luciferin, coelenterazine H, for 5 min and incubated for 5 min with VIP at increasing concentrations, for example ranging from 100 pM to 10 μM. The fluorescence and luminescence may then be quantified, for example using a PHERAstar (BMG) plate reader. […] Alternatively, analogous experiments may be performed using human cells harvested from a patient having a VIPR2 copy number variation, for example (but not by way of limitation) pluripotent stem cells prepared from such a patient and then transfected with a CAMYEL construct.
(§1) A series of compounds were prepared using a synthetic method analogous to that set forth in Scheme 1, above, and then tested for their ability to inhibit VIP-induced cAMP elevation and β-arrestin recruitment, as described herein (Discoverx Corporation, Fremont, Calif., US). Compound activities were also tested in a BRET-based assay, as described herein. The results are shown below in Tables 1-4, above.
Numerous cellular assays were developed that were able to detect VIP responses absent of interference from non-specific vasopressin receptors using this CHO based system. VIPR2 is a Gs coupled receptor. Activation of VIPR2 by VIP leads to both an elevation in cAMP signaling and the recruitment of β-arrestin. A variety of combinations can be transiently transfect into these CHO cells for the assessment of cellular responses to VIP. For the BRET readout CHO cell lines expressing an YFP-Epac-RLuc8 (CAMYEL) BRET sensor were used to detect changes in cAMP. This construct includes Epac1, a guanine nucleotide exchange factor activated by direct binding of cAMP, fused to an enhanced YFP and RLuc8 allowing a change in BRET upon cAMP-induced conformational changes. The key for medium to high throughput screening assays is the use of stable cell lines allowing the continuous assaying of multiple compounds with the ability to generate large numbers of cells for rapid use. […]
A general note: BRET reads energy transfer from a luciferase to a nearby fluorophore.

Test [2] concerns the target T1, VIPR2. Put plainly: Inhibition of VIP-induced cAMP elevation (% Activity).
Source text: In a further non-limiting embodiment of the invention, the ability of a compound to inhibit VIPR2 and […] may be measured using a Homogeneous Time-Resolved Fluorescence (“HTRF® assay; Cisbio Bioassays) as used in Chu et al., 2010, Molecular Pharmacol. 7795-101. In a method as used in Chu et al., 2010, Molecular Pharmacol. 7795-101, HEK293 cells may be transfected with nucleic acid encoding VIPR2, for example human VIPR2 (“hVIPR2”), for example comprised in a vector such as pCDNA3.1 vector. Successful transformnnants may then be selected, for example using 800 μg/ml G418. Clonal stable cell lines may then be generated by limited dilution to single cells and then may be clonally expanded and tested for VIP-dependent cAMP response. For the cAMP assay, about 3000-15,000 cells (in about 4-25 μl) may be placed in a well of an assay plate. The next day, inhibitor or test inhibitor and VIP may be added in a volume about 1-2 percent of the initial volume. Assay plates may then be returned to a cell incubator for 30 min before addition of a one-half volume of cAMP conjugate and, relative to the amount of cAMP conjugate, an equal volume of anti-cAMP conjugate (Cisbio). After at least 1 h of room-temperature incubation, HTRF signal may be read, for example using Viewlux or EnVision (PerkinElmer Life and Analytical Sciences, Waltham, Mass.). The ratio of […] at 665 nm and 620 nm times 10,000 may be calculated and plotted.
(§2) A series of compounds were prepared using a synthetic method analogous to that set forth in Scheme 1, above, and then tested for their ability to inhibit VIP-induced cAMP elevation and β-arrestin recruitment.
as §1

The target of test [3] is T1, VIPR2. Put plainly: Inhibition of VIP-induced β-arrestin recruitment (% Activity).
Source text: In a further non-limiting embodiment of the invention, the ability of a compound to inhibit VIPR2 GPCR activity may be tested, for example, using the PathHunter® eXpress 3-Arrestin GPCR system (Discoverx Corporation, Fremont, Calif., US), as used by Chu et al., 2010, Molecular Pharmacol. 7795-101. In this assay, J-Arrestin is fused to the “Enzyme Acceptor” (“EA”), an N-terminal deletion mutant of β-gal, and the GPCR of interest is fused to a smaller (42 amino acids), weakly complementing portion of the β-gal enzyme (termed “ProLink™”). In cells that stably express these fusion proteins, the interaction of β-Arrestin and the GPCR following ligand stimulation forces the complementation of the two β-gal fragments resulting in the formation of a functional enzyme that converts substrate to detectable signal. In the absence of an interaction between the GPCR and β-Arrestin, the enzyme activity is low due to the low affinity of the two enzyme fragments. For example, a nucleic acid encoding VIPR2, for example hVIPR2, may be cloned into the ProLink vector (DiscoveRx) for GPCR-ProLink fusion protein production. Parental HEK293 cells that stably express β-arrestin2-β-gal-EA fusion protein (DiscoveRx) may be detached and transiently transfected with the VIPR2-containing vector using Fugene6 transfection reagent in suspension mode. Transfected cells in assay medium may be plated into test plates, for example at 15,000 cells/25 μl/well. After overnight incubation, 500 n1 of an inhibitor or test inhibitor may be introduced into the test plate followed by 2 h incubation at 37° C., 5% CO2. Flash detection reagents may be added at 12.5 μl/well. After 5 min to 1 h of room-temperature incubation, the cell plates may be read on CLIPR (PerkinElmer Life and Analytical Sciences) or Acquest (Molecular Devices, Sunnyvale, Calif.) for luminescence signal.
as §2, §1
(Recruitment of arrestin is a read-out of receptor activation apart from second messengers.)

Entries after “also recorded” stand apart in the source; their conditions may differ.

One may read the IC50 as the concentration needed to halve the response being measured. Turning to `CS(=O)(=O)c1ccc(S(=O)(=O)NC[C@@H](O)C[C@@H](Cc2ccccc2)C(=O)N[C@H]2c3ccccc3C[C@H]2O)cc1` [Compound X111], at VIPR2 [1], the IC50 was determined as 13.3 µM.
Same read-out and setting: then `Cc1ccc(S(=O)(=O)NC[C@@H](O)C[C@@H](Cc2ccccc2)C(=O)N[C@H]2c3ccccc3C[C@H]2O)cc1C` [Compound X116], with 13.3 µM.
As to `CCCc1ccc(S(=O)(=O)NC[C@@H](O)C[C@@H](Cc2ccccc2)C(=O)N[C@H]2c3ccccc3C[C@H]2O)cc1` [Compound X113], the IC50 at VIPR2 [1] is 4.2 µM.
In general, inhibition refers to the drop in the measured response relative to a control, in per cent. Regarding `O=C([C@H](Cc1ccccc1)C[C@H](O)CNS(=O)(=O)c1ccc([N+](=O)[O-])cc1)N1CCOCC1` [Compound B9A], on VIPR2 [2] (Batch 2), the inhibition at 0.5 µM is 3.8%.
With `O=C([C@@H](Cc1ccccc1)C[C@H](O)CNS(=O)(=O)c1ccc([N+](=O)[O-])cc1)N1CCCCC1` [Compound B18B], on VIPR2 [3] (Batch 2), the inhibition at 0.5 µM stood at 9.5%.
`O=C(NC1CCCc2ccccc21)[C@@H](Cc1ccccc1)C[C@H](O)CNS(=O)(=O)c1ccc([N+](=O)[O-])cc1` (stereo partly shown) [Compound B13B] yielded a % activity (β-arrestin recruitment) at 1 µM at VIPR2 [3] (1 μM, Batch 2) of 5.9%.
With `CCC(=O)Nc1ccc(S(=O)(=O)NC[C@@H](O)C[C@@H](Cc2ccccc2)C(=O)N[C@H]2c3ccccc3C[C@H]2O)cc1` [Compound X091], the inhibition at 0.5 µM on VIPR2 [3] (Batch 3) stood at 3.4%.
For `CCCOc1ccc(S(=O)(=O)NC[C@@H](O)C[C@@H](Cc2ccccc2)C(=O)N[C@H]2c3ccccc3C[C@H]2O)cc1` [Compound X118], the IC50 at VIPR2 [1] is 4.2 µM.
`O=C(N[C@H]1c2ccccc2C[C@H]1O)[C@H](Cc1ccccc1)C[C@H](O)CNS(=O)(=O)c1ccc(OC(F)(F)F)cc1` [Compound X112]: the half-maximal inhibitory concentration (IC50) on VIPR2 [1] turned out to be 152 µM.
`O=C(N[C@H]1c2ccccc2C[C@H]1O)[C@H](Cc1ccccc1)C[C@H](O)CNS(=O)(=O)c1ccc(C(=O)N2CCCCC2)cc1` [Compound X101]: the inhibition at 0.5 µM on VIPR2 [2] (Batch 3) is -5.3%.
Take `CCC(C)c1ccc(S(=O)(=O)NC[C@@H](O)C[C@@H](Cc2ccccc2)C(=O)N[C@H]2c3ccccc3C[C@H]2O)cc1` (stereo partly shown) [Compound X117]: the half-maximal inhibitory concentration (IC50) at VIPR2 [1] was found to be 152 µM.
Take `O=C(N[C@H]1c2ccccc2C[C@H]1O)[C@H](Cc1ccccc1)C[C@H](O)CNS(=O)(=O)c1ccc([N+](=O)[O-])cc1` [Compound 1, reference compound]: the “shift of VIP dose-response curve” value on VIPR2 [1] (increasing doses of compound (FIG. 1C)) is reported as “rightward shift”.
For the molecule `COc1cc(C(=O)NC[C@@H](O)C[C@@H](Cc2ccccc2)C(=O)N[C@H]2c3ccccc3C[C@H]2O)cc(OC)c1OC` [H], the inhibition at 1 µM at VIPR2 [3] (1 μM, Batch 1) was 3.2%.
Turning to `O=C(N[C@H]1c2ccccc2C[C@H]1O)[C@H](Cc1ccccc1)C[C@H](O)CNS(=O)(=O)c1ccc(C(F)(F)F)cc1` [F], at VIPR2 [1] (compared with Compound 1 or other compounds (FIG. 1C, FIG. 5B)), the “VIPR2 inhibition in BRET-based assay, in words” value is given as “greater activity than Compound 1; also recorded: greater effect on VIPR2 inhibition than Compound 1”.
Turning to `CCC(C)Oc1ccc(S(=O)(=O)NC[C@@H](O)C[C@@H](Cc2ccccc2)C(=O)N[C@H]2c3ccccc3C[C@H]2O)cc1` (stereo partly shown) [Compound X120], at VIPR2 [1], the IC50 amounted to 45.8 µM.
For `O=C([C@@H](Cc1ccccc1)C[C@H](O)CNS(=O)(=O)c1ccc([N+](=O)[O-])cc1)N1CCOCC1` [Compound B9B], at VIPR2 [2] (1 μM, Batch 2), the inhibition at 1 µM was -10.4%.
